Where two headings read alike, the source gives them in different places.
What was measured:
[1] = biological target: T1, C1A domain (Homo sapiens, UniProt P05129); details: C1A-GFP, response to PMA, reported; cited from earlier work
T1 construct: The translocation of the C1A domain in response to PMA stimulation has been extensively characterized by fusion to GFP

[2] = biological target: T2, C1A domain from PKCγ (Homo sapiens, UniProt P05129); assay: Plasma membrane translocation assay: C1A domain of PKCγ fused to GFP-α mutants, tEGFR-ω in NIH 3T3 cells, β-galactosidase complementation; type: cell-based
T2 construct: the C1A domain from PKCγ was fused to four of the GFP-α point mutants; β-galactosidase α peptide carrying H31R, E41Q, N39D or N39Q (β-gal numbering; the mutation lies in the tag, not in PKCγ); expressed in transfected cells; host or cells: NIH 3T3 cells expressing tEGFR-ω
Excerpt: Creation of a plasma membrane translocation assay required expression of the ω fragment at the membrane which was achieved using the tEGFR-ω construct. When the target protein-α fusion move from the cytosol to the membrane, the local increased concentration of a peptide should drive complementation as illustrated in FIG. 4B. To determine which of the mutants would work best in this type of assay the C1A domain from PKCγ was fused to four of the GFP-α point mutants that complemented to varying degrees, H31R, E41Q, N39D, and N39Q. […] The ω fragment was tethered to the plasma membrane using the extracellular and transmembrane regions of the EGFR. Four of the mutants were fused to the C1A domain of PKCγ and co-expressed with the tEGFR. Their responses to 1 μM PMA for 20 min were expressed as a fold induction over background. The C1A domain efficiently translocated to the plasma membrane when exposed to phorbol esters such as PMA (FIG. 4C). The fusion proteins were expressed in NIH 3T3 cells expressing the tEGFR-ω, and assayed for increased complementation in the presence of PMA for 30 min.
The translocation of the C1A domain in response to PMA stimulation has been extensively characterized by fusion to GFP. The largest increase in fluorescence at the plasma membrane in response to PMA was reported to be 70% with the lowest dose of PMA detected using these methods being between 10 and 100 nM. […] Importantly, the requirement of the co fragment for complementation ensured that enzyme activity was only generated where the co-fragment was localized. Thus, the assay measured increases in protein concentration at a specific location in the cell.

[3] = biological target: glucocorticoid receptor (Homo sapiens, UniProt P04150); details: 30 min of treatment
Chain of glucocorticoid receptor (P04150 whole entry, species assumed, the tested form may be a part): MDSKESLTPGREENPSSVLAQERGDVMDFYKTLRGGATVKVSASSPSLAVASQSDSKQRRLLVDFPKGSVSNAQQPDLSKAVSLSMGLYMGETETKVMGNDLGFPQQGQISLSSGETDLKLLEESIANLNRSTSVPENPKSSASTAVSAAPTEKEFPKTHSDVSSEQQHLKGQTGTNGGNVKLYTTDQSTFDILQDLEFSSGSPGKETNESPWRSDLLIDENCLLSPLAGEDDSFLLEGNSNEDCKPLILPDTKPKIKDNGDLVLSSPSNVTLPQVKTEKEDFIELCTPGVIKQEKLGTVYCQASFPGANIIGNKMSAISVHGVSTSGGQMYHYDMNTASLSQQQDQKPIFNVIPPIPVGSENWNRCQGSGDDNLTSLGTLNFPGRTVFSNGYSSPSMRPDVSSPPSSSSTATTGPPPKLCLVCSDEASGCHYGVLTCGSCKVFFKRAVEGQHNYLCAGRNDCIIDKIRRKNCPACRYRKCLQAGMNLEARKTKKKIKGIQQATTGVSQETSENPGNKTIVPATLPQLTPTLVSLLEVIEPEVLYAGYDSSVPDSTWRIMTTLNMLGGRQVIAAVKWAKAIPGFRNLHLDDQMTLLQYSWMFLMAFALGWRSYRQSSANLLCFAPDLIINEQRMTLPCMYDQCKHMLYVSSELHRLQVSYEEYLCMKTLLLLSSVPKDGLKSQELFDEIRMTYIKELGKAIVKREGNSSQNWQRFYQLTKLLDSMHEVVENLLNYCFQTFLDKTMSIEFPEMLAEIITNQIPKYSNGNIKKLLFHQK
Excerpt: To test the applicability of the system to a physiological translocation event the glucocoticoid receptor was fused to the amino-terminus of the GFP-α fusion. The glucocoticoid receptor is a nuclear steroid hormone receptor that undergoes a robust nuclear translocation in response to treatment with various hormones including dexamethasone. This construct was stably introduced into both the co-NLS and tEGFR-ω cell lines then assayed for changes in β-galactosidase activity upon treatment of the cells with dexamethasone using the luminescent β-galactosidase substrate.
Cell lines shown in FIG. 3 A were treated with varying concentrations of dexamethasone and assayed over time. […] The GR-α cell lines were treated with 1 μM dexamethasone (red) for 3 hours then stained with the luorescent β-galactosidase DDAO substrate and analyzed by low cytometry.

[4] = test system: Crm1 mediated nuclear export; assay: Nuclear translocation gain of signal assay: NES-GFP-α-NLS co-expressed with ω-NLS, β-galactosidase complementation, luminescent substrate; type: cell-based, mouse; details: leptomycin B for 2 hours, C2C12 myoblasts
Excerpt: In order to utilize a complementation as a method of quantitatively assessing nuclear translocation events, two systems were designed that are distinct in the localization of the ω-fragment. FIG. 2A is a schematic showing the design of the nuclear translocation assay. In the let panel, the ω fragment is localized to the nucleus with a nuclear localization signal (NLS) and the cytosolic protein of interest is fused to the minimal α peptide. Upon stimulation the α fusion moves to the nucleus and complements the co, increasing β-galactosidase activity. In the right panel, the co fragment is tethered to the plasma membrane using the extracellular and transmembrane regions of EGFR. The cytosolic α-fusion complements spontaneously until stimulation when it translocates to the nucleus which results in a loss of enzyme activity.
The gain of signal assay (FIG. 2A left panel) localized the ω to the nucleus through fusion to a triplet SV40 nuclear localization signal (NLS). Thus, an increase in β-galactosidase activity should be observed when the target protein-α fusion moves from the cytosol to the nucleus. The loss of signal assay (FIG. 2 A right panel) localized the ω-fragment to the plasma membrane through fusion to the extracellular and transmembrane regions of the EGF receptor (tEGFR). […]

[5] = test system: PH domain of AKT; assay: AKT PH domain plasma membrane translocation: AKT-GFP-α in 3T3 fibroblasts with tEGFR-ω, luminescent β-galactosidase assay, 96-well; type: cell-based; details: 50 ng/ml PDGF, insulin, or sorbitol; 3T3 cells; maximal over time course
Experimental: To test whether the system was robust enough to monitor translocation events in response to physiologically relevant stimuli, this system was applied to the translocation of the PH domain of AKT. […] The PH domain of AKT was fused to the GFP-α chimera and expressed in 3T3 fibroblasts harboring the tEGFR-ω protein. […] The cells were stimulated under various conditions, and the translocation of the PH domain was assayed in 96-well dishes by a luminescent measure of β-galactosidase activity.

Molecule: CCCCCCCCCCCCCC(=O)O[C@@H]1[C@@H](C)[C@@]2(O)[C@@H](C=C(CO)C[C@]3(O)C(=O)C(C)=C[C@@H]23)[C@@H]2C(C)(C)[C@]12OC(C)=O [PMA]
- largest increase in fluorescence at the plasma membrane [1]: 70%
- increase in signal ([2]; 800 nM PMA (saturating)): 1000%
- saturating PMA concentration ([2]; C1A domain membrane translocation assay): 800 nM
- increases in enzyme activity in the presence of PMA ([2]; β-galactosidase complementation, H31R): 700-1000%

Molecule: C[C@@H]1C[C@H]2[C@@H]3CCC4=CC(=O)C=C[C@]4(C)[C@@]3(F)[C@@H](O)C[C@]2(C)[C@@]1(O)C(=O)CO [dexamethasone]
- difference in β-galactosidase activity ([3]; gain of signal): 100%
- difference in β-galactosidase activity ([3]; loss of signal): 25%

Molecule: CCC(=C/[C@H](C)C/C=C/C(C)=C/[C@@H](C)C(=O)[C@@H](C)[C@H](O)[C@@H](C)C/C(C)=C/C(=O)O)/C=C/[C@@H]1OC(=O)C=C[C@@H]1C [leptomycin B]
- increase in β-galactosidase activity [4]: 3.5 fold

Molecule: OC[C@@H](O)[C@@H](O)[C@H](O)[C@@H](O)CO [sorbitol]
- increase in β-galactosidase activity [5]: 8 fold

Molecule: H31R: α peptide of β-galactosidase with H31R mutation, low affinity (MGVITDSLAVVLQRRDWENPGVTQLNRLAARPPFASWRNSEEARTDRPSQQL; E. coli; PEPTIDE (1)..(52) alpha peptide (H31R))
- induction of β-galactosidase activity in the presence of PMA ([2]; C1A-GFP-α mutant, 1 μM PMA, NIH 3T3 tEGFR-ω): 7 fold

Molecule: platelet-derived growth factor [PDGF]
- increase in β-galactosidase activity [5]: 5 fold

Molecule: wt peptide: wild type α peptide of β-galactosidase (MGVITDSLAVVLQRRDWENPGVTQLNRLAAHPPFASWRNSEEARTDRPSQQL; E. coli; PEPTIDE (1)..(52) alpha peptide (wildtype))
- increase in β-galactosidase activity in the presence of PMA ([2]; C1A-GFP-α wt peptide, PMA, NIH 3T3 tEGFR-ω): < 10%

Source: patent US8679832B2, “Detection of protein translocation by beta-galactosidase reporter fragment complementation” (The Board of Trustees of the Leland Stanford Junior …, priority 2004, dated 2014)
